Data as given in ChEMBL document CHEMBL3352445, “Inhibition of activated STAT5 in Bcr/Abl expressing leukemia cells with new pimozide derivatives” (Bioorg Med Chem Lett, 2014).
Active and inactive are the calls of the source. The rule behind the calls is not given here.

Columns and labels:
K562 [1] = assay: Cell cycle arrest in human K562 cells assessed as accumulation at S phase after 24 hrs using propidium iodide staining at 30 uM by flow cytometry (reference value: 45.94%); type: functional
K562 [2] = assay: Effect on pSTAT5 expression level in human K562 cells at 20 uM after 24 hrs by FACScan flow cytometry; type: functional, cell-based
K562 [3] = assay: Cytotoxicity against human K562 cells after 48 hrs by trypan blue dye exclusion test; type: functional, cell-based; conditions: K562, 48 h
K562 [4] = assay: Induction of apoptosis in human K562 cells by annexin V/propidium iodide staining-based flow cytometric analysis; type: functional, cell-based
K562 [5] = assay: Cell cycle arrest in human K562 cells assessed as accumulation at G2-M phase after 24 hrs using propidium iodide staining at 30 uM by flow cytometry (reference value: 15.01%); type: functional
K562 [6] = assay: Cell cycle arrest in human K562 cells assessed as accumulation at G1 phase after 24 hrs using propidium iodide staining at 30 uM by flow cytometry (reference value: 39.05%); type: functional
K562 [7] = assay: Cell cycle arrest in human K562 cells assessed as accumulation at G2-M phase after 24 hrs using propidium iodide staining at 10 uM by flow cytometry (reference value: 15.01%); type: functional
K562 [8] = assay: Cell cycle arrest in human K562 cells assessed as accumulation at S phase after 24 hrs using propidium iodide staining at 10 uM by flow cytometry (reference value: 45.94%); type: functional
K562 [9] = assay: Reduction in pSTAT5 expression level in human K562 cells at 10 uM after 24 hrs by FACScan flow cytometry; type: functional, cell-based
K562 [10] = assay: Cell cycle arrest in human K562 cells assessed as accumulation at G1 phase after 24 hrs using propidium iodide staining at 10 uM by flow cytometry (reference value: 39.05%); type: functional
K562 [11] = assay: Cell cycle arrest in human K562 cells assessed as accumulation at G2-M phase after 24 hrs using propidium iodide staining at 40 uM by flow cytometry (reference value: 15.01%); type: functional
K562 [12] = assay: Cell cycle arrest in human K562 cells assessed as accumulation at G1 phase after 24 hrs using propidium iodide staining at 40 uM by flow cytometry (reference value: 39.05%); type: functional
K562 [13] = assay: Effect on pSTAT5 expression level in human K562 cells at 30 uM after 24 hrs by FACScan flow cytometry; type: functional, cell-based
K562 [14] = assay: Cell cycle arrest in human K562 cells assessed as accumulation at S phase after 24 hrs using propidium iodide staining at 40 uM by flow cytometry (reference value: 45.94%); type: functional
K562 [15] = assay: Effect on pSTAT5 expression level in human K562 cells at 10 uM after 24 hrs by FACScan flow cytometry; type: functional, cell-based
K562 [16] = assay: Ratio of Pimozide IC50 to compound IC50 for human K562 cells by trypan blue dye exclusion test; type: functional
K562 [17] = assay: Induction of pSTAT5 expression level in human K562 cells at 15 uM after 24 hrs by FACScan flow cytometry; type: functional, cell-based
K562 [18] = assay: Ratio of Pimozide to compound for pSTAT5 expression level in human K562 cells; type: functional
K562 [19] = assay: Ratio of Pimozide AC50 to compound AC50 for human K562 cells by annexin V/propidium iodide staining-based flow cytometric analysis; type: functional
K562 [20] = assay: Cell cycle arrest in human K562 cells assessed as accumulation at G1 phase after 24 hrs using propidium iodide staining at 5 uM by flow cytometry (reference value: 39.05%); type: functional
K562 [21] = assay: Induction of pSTAT5 expression level in human K562 cells at 10 uM after 24 hrs by FACScan flow cytometry; type: functional, cell-based
K562 [22] = assay: Cell cycle arrest in human K562 cells assessed as accumulation at G2-M phase after 24 hrs using propidium iodide staining at 5 uM by flow cytometry (reference value: 15.01%); type: functional
K562 [23] = assay: Cell cycle arrest in human K562 cells assessed as accumulation at S phase after 24 hrs using propidium iodide staining at 5 uM by flow cytometry (reference value: 45.94%); type: functional
K562 [24] = assay: Cell cycle arrest in human K562 cells assessed as accumulation at G2-M phase after 24 hrs using propidium iodide staining at 20 uM by flow cytometry (reference value: 15.01%); type: functional
K562 [25] = assay: Cell cycle arrest in human K562 cells assessed as accumulation at G1 phase after 24 hrs using propidium iodide staining at 20 uM by flow cytometry (reference value: 39.05%); type: functional
K562 [26] = assay: Cell cycle arrest in human K562 cells assessed as accumulation at S phase after 24 hrs using propidium iodide staining at 20 uM by flow cytometry (reference value: 45.94%); type: functional
K562 [27] = assay: Cell cycle arrest in human K562 cells assessed as accumulation at S phase after 24 hrs using propidium iodide staining at 7 uM by flow cytometry (reference value: 45.94%); type: functional
K562 [28] = assay: Cell cycle arrest in human K562 cells assessed as accumulation at G1 phase after 24 hrs using propidium iodide staining at 7 uM by flow cytometry (reference value: 39.05%); type: functional
K562 [29] = assay: Cell cycle arrest in human K562 cells assessed as accumulation at G2-M phase after 24 hrs using propidium iodide staining at 7 uM by flow cytometry (reference value: 15.01%); type: functional

O=C(CCC(c1ccccc1)c1ccccc1)N1CCC(n2c(=O)[nH]c3ccccc32)CC1
Activity (K562 [1]): 31.57% | Activity (K562 [2]): inactive | IC50 (K562 [3]): 14 µM | AC50 (K562 [4]): 19 µM | Activity (K562 [5]): 20.41% | Activity (K562 [6]): 48.02%

O=c1[nH]c2ccccc2n1C1CCN(CCCC(c2ccc(F)cc2)c2ccc(F)cc2)CC1 [PIMOZIDE]
Activity (K562 [7]): 10.31% | Activity (K562 [8]): 38.41% | Activity (K562 [9]): Dose-dependent effect | Activity (K562 [10]): 51.28% | IC50 (K562 [3]): 5 µM | AC50 (K562 [4]): 10 µM

O=C(Cc1ccc([N+](=O)[O-])cc1)N1CCC(n2c(=O)[nH]c3ccccc32)CC1
Activity (K562 [11]): 6.07% | Activity (K562 [12]): 31.72% | IC50 (K562 [3]): 35 µM | AC50 (K562 [4]): > 50 µM | Activity (K562 [13]): inactive | Activity (K562 [14]): 62.21%

O=C(CCC(c1ccc(F)cc1)c1ccc(F)cc1)N1CCC(n2c(=O)[nH]c3ccccc32)CC1
IC50 (K562 [3]): > 50 µM | AC50 (K562 [4]): > 50 µM

C=CC(=O)N1CCC(n2c(=O)[nH]c3ccccc32)CC1
IC50 (K562 [3]): > 50 µM | AC50 (K562 [4]): > 50 µM

O=C(CCl)N1CCC(n2c(=O)[nH]c3ccccc32)CC1
Activity (K562 [7]): 6.1% | Activity (K562 [8]): 60.23% | Activity (K562 [10]): 33.67% | IC50 (K562 [3]): 7.3 µM | AC50 (K562 [4]): 14 µM | Activity (K562 [15]): inactive

O=c1[nH]c2ccccc2n1C1CCNCC1
IC50 (K562 [3]): > 50 µM | AC50 (K562 [4]): > 50 µM

N#CCC(=O)N1CCC(n2c(=O)[nH]c3ccccc32)CC1
IC50 (K562 [3]): > 50 µM | AC50 (K562 [4]): > 50 µM

CC(=O)N1CCC(n2c(=O)[nH]c3ccccc32)CC1
IC50 (K562 [3]): > 50 µM | AC50 (K562 [4]): > 50 µM

O=C(Cc1cc2ccccc2[nH]1)N1CCC(n2c(=O)[nH]c3ccccc32)CC1
IC50 (K562 [3]): > 50 µM | AC50 (K562 [4]): > 50 µM

O=C(CI)N1CCC(n2c(=O)[nH]c3ccccc32)CC1
Ratio IC50 (K562 [16]): 2.7 | Activity (K562 [17]): Active | Ratio IC50 (K562 [18]): 1.49 | Ratio IC50 (K562 [19]): 2 | Activity (K562 [20]): 46.96% | Activity (K562 [21]): Active | IC50 (K562 [3]): 1.8 µM | Activity (K562 [22]): 13.98% | AC50 (K562 [4]): 5 µM | Activity (K562 [23]): 39.06%

O=C(CC=C(c1ccccc1)c1ccccc1)N1CCC(n2c(=O)[nH]c3ccccc32)CC1
Activity (K562 [2]): inactive | Activity (K562 [24]): 7.33% | Activity (K562 [25]): 34.1% | IC50 (K562 [3]): 13 µM | AC50 (K562 [4]): 18 µM | Activity (K562 [26]): 58.57%

O=C(Cc1ccccc1)N1CCC(n2c(=O)[nH]c3ccccc32)CC1
IC50 (K562 [3]): > 50 µM | AC50 (K562 [4]): > 50 µM

COc1ccc(CC(=O)N2CCC(n3c(=O)[nH]c4ccccc43)CC2)cc1
IC50 (K562 [3]): > 50 µM | AC50 (K562 [4]): > 50 µM

O=C(CC=C(c1ccc(F)cc1)c1ccc(F)cc1)N1CCC(n2c(=O)[nH]c3ccccc32)CC1
Activity (K562 [1]): 46.64% | Activity (K562 [2]): inactive | IC50 (K562 [3]): 18 µM | AC50 (K562 [4]): 35 µM | Activity (K562 [5]): 6.16% | Activity (K562 [6]): 47.2%

CN1CCC(n2c(=O)[nH]c3ccccc32)CC1
IC50 (K562 [3]): > 50 µM | AC50 (K562 [4]): > 50 µM

O=C(CBr)N1CCC(n2c(=O)[nH]c3ccccc32)CC1
Activity (K562 [17]): Active | Activity (K562 [21]): Active | IC50 (K562 [3]): 2.4 µM | AC50 (K562 [4]): 4.8 µM | Activity (K562 [27]): 43.23% | Activity (K562 [28]): 47.55% | Activity (K562 [29]): 9.22%
